Results: patent publication US8993585B2, “Cyclic amine substituted pyrimidinediamines as PKC inhibitors” (Rigel Pharmaceuticals, Inc., priority 2007, dated 2015)

Test system: Human primary T cells
Assay: IL-2 ELISA, Human Primary T Cell, Anti-CD3+CD28+ (Example 3)
Assay type: cell-based
Conditions: anti-CD3+CD28 stimulation, 24 hours
Experimental: Human primary T cell isolation and culture: Human primary T cells were prepared as follows. […] The cells at the serum:ficoll interface were recovered and washed twice with 5 volumes of PBS. […] The primary T-cells were then washed twice with PBS to remove the IL-2.
Primary T cell stimulation and IL2 ELISA: Human primary T cells (100,000 cells per well) were pre-incubated with or without test compound in Yssel's medium for 1 hr at 37° C. Cells were then stimulated by transferring them to round-bottom 96-well plates pre-coated with 1 ug/ml αCD3 and 5 μg/ml αCD28. For counter assay, cells were instead stimulated by adding 8× stock solutions of PMA and ionomycin in Yssels (for final concentrations of 0.5 ng/ml PMA and 0.1 uM ionomycin, both from Calbiochem).

Compound	IC50
Cc1cnc(Nc2ccc(S(N)(=O)=O)cc2)nc1NC1CC(C)(C)N(C)C(C)(C)C1 [Compound I-13]	7680 nM
Cc1cnc(Nc2cccc(S(N)(=O)=O)c2)nc1NC1CC(C)(C)N(C)C(C)(C)C1 [Compound I-14]	9840 nM
Cc1ccc(Nc2ncc(C)c(NC3CC(C)(C)N(C)C(C)(C)C3)n2)cc1S(N)(=O)=O [Compound I-15]	6850 nM
COc1cc(Nc2ncc(C)c(NC3CC(C)(C)N(C)C(C)(C)C3)n2)cc(OC)c1OC [Compound I-16]	5280 nM
Cc1cc(C)cc(Nc2ncc(C)c(NC3CC(C)(C)N(C)C(C)(C)C3)n2)c1 [Compound I-17]	963 nM
CCN1CCN(c2ccc(Nc3ncc(C)c(NC4CC(C)(C)N(C)C(C)(C)C4)n3)cc2C)CC1 [Compound I-18]	9440 nM
COc1cc(Nc2ncc(F)c(NC3CC(C)(C)N(C)C(C)(C)C3)n2)cc(OC)c1OC [Compound I-19]	1230 nM
CN1C(C)(C)CC(Nc2nc(Nc3ccc(F)c(F)c3)ncc2F)CC1(C)C [Compound I-21]	414 nM
CN1C(C)(C)CC(Nc2nc(Nc3ccc(C(N)=O)cc3)ncc2F)CC1(C)C [Compound I-23]	1680 nM
CN1C(C)(C)CC(Nc2nc(Nc3cccc(C(N)=O)c3)ncc2F)CC1(C)C [Compound I-24]	1520 nM
CN1C(C)(C)CC(Nc2nc(Nc3ccc(C#N)cc3)ncc2F)CC1(C)C [Compound I-25]	4890 nM
COc1ccc(Nc2ncc(C)c(NC3CC(C)(C)N(C)C(C)(C)C3)n2)cc1Cl [Compound I-27]	497 nM
Cc1cnc(Nc2ccc(C#N)c(Cl)c2)nc1NC1CC(C)(C)N(C)C(C)(C)C1 [Compound I-28]	455 nM
Cc1cnc(Nc2ccc(N3CCN(C)CC3)c(Cl)c2)nc1NC1CC(C)(C)N(C)C(C)(C)C1 [Compound I-29]	463 nM
Cc1cnc(Nc2ccc(N3CCN(C)CC3)c(C(F)(F)F)c2)nc1NC1CC(C)(C)N(C)C(C)(C)C1 [Compound I-30]	335 nM
COc1ccc(Nc2ncc(C(F)(F)F)c(NC3CC(C)(C)N(C)C(C)(C)C3)n2)cc1Cl [Compound I-32]	328 nM
CN1C(C)(C)CC(Nc2nc(Nc3ccc(C#N)c(Cl)c3)ncc2C(F)(F)F)CC1(C)C [Compound I-33]	532 nM
CN1CCN(c2ccc(Nc3ncc(Cl)c(NC4CC(C)(C)N(C)C(C)(C)C4)n3)cc2Cl)CC1 [Compound I-36]	83 nM
CN1CCN(c2ccc(Nc3ncc(Cl)c(NC4CC(C)(C)N(C)C(C)(C)C4)n3)cc2C(F)(F)F)CC1 [Compound I-37]	511 nM
CN1CCN(c2c(F)cc(Nc3ncc(F)c(NC4CC(C)(C)N(C)C(C)(C)C4)n3)cc2F)CC1 [Compound I-40]	461 nM
CCN1CCN(c2cc(Nc3ncc(F)c(NC4CC(C)(C)N(C)C(C)(C)C4)n3)ccc2Cl)CC1 [Compound I-41]	2630 nM
COC(=O)N1CCN(c2cc(Nc3ncc(F)c(NC4CC(C)(C)N(C)C(C)(C)C4)n3)ccc2Cl)CC1 [Compound I-43]	890 nM
CN1CCN(C(=O)c2ccc(Nc3ncc(F)c(NC4CC(C)(C)N(C)C(C)(C)C4)n3)cc2Cl)CC1 [Compound I-44]	2010 nM
COc1ccc(Nc2ncc(F)c(N(C)C3CC(C)(C)N(C)C(C)(C)C3)n2)cc1Cl [Compound I-58]	2000 nM
CN1CCN(c2ccc(Nc3ncc(F)c(N(C)C4CC(C)(C)N(C)C(C)(C)C4)n3)cc2C(F)(F)F)CC1 [Compound I-59]	911 nM
CN1CCN(c2ccc(Nc3ncc(F)c(N(C)C4CC(C)(C)N(C)C(C)(C)C4)n3)cc2Cl)CC1 [Compound I-60]	524 nM
CN(c1nc(Nc2cccc(C#N)c2)ncc1F)C1CC(C)(C)N(C)C(C)(C)C1 [Compound I-66]	1460 nM

Continued, values first:

IC50	Compound
1280 nM	5-Fluoro-N2-(4-methyl-cyano)phenyl-N4-(1,2,2,5,5-pentamethylpyrrolidin-3-yl)-2,4-pyrimidinediamine [Compound I-278]
2370 nM	CN1CCN(S(=O)(=O)c2ccc(Nc3ncc(F)c(NC4CC(C)(C)N(C)C(C)(C)C4)n3)cc2Cl)CC1 [Compound I-45]
14300 nM	CN1C(C)(C)CC(Nc2nc(Nc3ccc(S(=O)(=O)N4CCNCC4)c(Cl)c3)ncc2F)CC1(C)C [Compound I-46]
136 nM	COC(=O)N1CCN(c2ccc(Nc3ncc(F)c(NC4CC(C)(C)N(C)C(C)(C)C4)n3)cc2C(F)(F)F)CC1 [Compound I-47]
39 nM	CN1C(C)(C)CC(Nc2nc(Nc3ccc(N4CCN(S(C)(=O)=O)CC4)c(C(F)(F)F)c3)ncc2F)CC1(C)C [Compound I-48]
284 nM	CC(=O)N1CCN(c2ccc(Nc3ncc(F)c(NC4CC(C)(C)N(C)C(C)(C)C4)n3)cc2C(F)(F)F)CC1 [Compound I-49]
320 nM	CN1C(C)(C)CC(Nc2nc(Nc3ccc(N4CCC(F)(F)CC4)c(Cl)c3)ncc2F)CC1(C)C [Compound I-50]
1010 nM	CN1C(C)(C)CC(Nc2nc(Nc3ccc(N4CCC(F)(F)CC4)c(F)c3)ncc2F)CC1(C)C [Compound I-51]
133 nM	CN1CCN(Cc2ccc(Nc3ncc(F)c(NC4CC(C)(C)N(C)C(C)(C)C4)n3)cc2C(F)(F)F)CC1 [Compound I-52]
1940 nM	CN1CCN(c2ccc(Nc3ncc(F)c(NC4CC(C)(C)N(C)C(C)(C)C4)n3)cc2C(N)=O)CC1 [Compound I-53]
3060 nM	CNC(=O)c1cc(Nc2ncc(F)c(NC3CC(C)(C)N(C)C(C)(C)C3)n2)ccc1N1CCN(C)CC1 [Compound I-54]
1570 nM	COc1cc(Nc2ncc(F)c(NC3CC(C)(C)N(C)C(C)(C)C3)n2)ccc1N1CCN(C)CC1 [Compound I-55]
2380 nM	CCCN1CCN(c2cc(Nc3ncc(F)c(NC4CC(C)(C)N(C)C(C)(C)C4)n3)ccc2Cl)CC1 [Compound I-56]
364 nM	CN1CCN(Cc2ccc(Nc3ncc(F)c(NC4CC(C)(C)N(C)C(C)(C)C4)n3)cc2Cl)CC1 [Compound I-57]
94 nM	CN1C(C)(C)CC(Nc2nc(Nc3ccc(N4CCN(S(C)(=O)=O)CC4)c(Cl)c3)ncc2F)CC1(C)C [Compound I-61]
257 nM	COC(=O)N1CCN(c2ccc(Nc3ncc(F)c(NC4CC(C)(C)N(C)C(C)(C)C4)n3)cc2Cl)CC1 [Compound I-62]
1850 nM	CN1CCN(c2ccc(Nc3ncc(F)c(NC4CC(C)(C)N(C)C(C)(C)C4)n3)cc2CO)CC1 [Compound I-63]
2600 nM	CN1CCN(C(=O)c2ccc(Nc3ncc(F)c(NC4CC(C)(C)N(C)C(C)(C)C4)n3)cc2C(F)(F)F)CC1 [Compound I-64]
1980 nM	CN1CCN(c2cc(Nc3ncc(F)c(NC4CC(C)(C)N(C)C(C)(C)C4)n3)ccc2Cl)CC1 [Compound I-65]
346 nM	CC(=O)N1CCN(c2ccc(Nc3ncc(F)c(NC4CC(C)(C)N(C)C(C)(C)C4)n3)cc2Cl)CC1 [Compound I-67]
589 nM	CN1C(C)(C)CC(Nc2nc(Nc3ccc(Cl)c(N4CCN(S(C)(=O)=O)CC4)c3)ncc2F)CC1(C)C [Compound I-68]
2390 nM	Cc1nccc(-c2cccc(Nc3ncc(F)c(NC4CC(C)(C)N(C)C(C)(C)C4)n3)c2)n1 [Compound I-69]
632 nM	COc1ccc(Nc2ncc([N+](=O)[O-])c(NC3CC(C)(C)N(C)C(C)(C)C3)n2)cc1Cl [Compound I-71]
992 nM	CN1C(C)(C)CC(Nc2nc(Nc3cccc(C#N)c3)ncc2[N+](=O)[O-])CC1(C)C [Compound I-72]
665 nM	CN1C(C)(C)CC(Nc2nc(Nc3ccc(N4CCN(S(C)(=O)=O)CC4)c(Cl)c3)ncc2[N+](=O)[O-])CC1(C)C [Compound I-73]
